Counter-ions that a name gives are not always drawn. Like-named read-outs stand apart in the source and are kept apart here. Values belong to the compound of their own block, whether it stands above or below them.
Assays:
CDK2/Cyclin A = CDK2/Cyclin A (Homo sapiens, UniProt P24941); assay: Inhibition of CDK2/Cyclin A Retinoblastoma Kinase Activity; type: biochemical; conditions: for Ki: apparent Ki, CDK2/proteolyzed cyclin A, Rb fragment substrate, 25 μM ATP; for CDK2 % Inhibition At 0.03 μM: Table 2
Procedure, shortened: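 Percent inhibition is calculated against DMSO-only wells after subtracting no-enzyme background. The enzyme is human CDK2 complexed with proteolyzed cyclin A, used at 10 nM or 19 nM on an Rb fragment with 25 μM [32/33P]ATP, at pH 7.4 and 30° C.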

[1] = target: human CDK4 and genetically truncated (1-264) cyclin D3 (Homo sapiens, UniProt P11802); assay: Inhibition of CDK4/Cyclin D Retinoblastoma Kinase Activity; type: biochemical; conditions: for Ki: apparent Ki, CDK4/truncated cyclin D3, Rb fragment substrate, 25 μM ATP
human CDK4 and genetically truncated (1-264) cyclin D3, sequence (P11802 whole entry, the tested form may be a part): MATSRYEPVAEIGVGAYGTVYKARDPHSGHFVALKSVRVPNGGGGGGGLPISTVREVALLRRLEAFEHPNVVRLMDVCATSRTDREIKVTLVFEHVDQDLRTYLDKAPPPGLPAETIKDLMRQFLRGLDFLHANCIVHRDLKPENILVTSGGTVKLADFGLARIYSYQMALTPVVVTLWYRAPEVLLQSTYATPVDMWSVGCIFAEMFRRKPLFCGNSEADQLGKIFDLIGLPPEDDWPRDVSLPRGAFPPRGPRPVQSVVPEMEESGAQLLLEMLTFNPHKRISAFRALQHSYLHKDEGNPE
human CDK4 and genetically truncated (1-264) cyclin D3, sequence (P30281 1-264 partner): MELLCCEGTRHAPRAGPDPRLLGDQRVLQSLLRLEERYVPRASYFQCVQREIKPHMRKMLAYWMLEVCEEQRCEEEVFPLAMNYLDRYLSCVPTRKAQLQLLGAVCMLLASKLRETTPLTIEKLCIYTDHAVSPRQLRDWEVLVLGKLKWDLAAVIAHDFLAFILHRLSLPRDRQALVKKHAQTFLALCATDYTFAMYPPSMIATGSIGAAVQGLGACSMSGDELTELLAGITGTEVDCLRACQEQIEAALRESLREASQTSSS
Procedure, shortened: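 Apparent Ki values derive from fitting activity at varied inhibitor concentrations to a competitive (or competitive tight-binding) model. Kinase reactions used 5 nM CDK4/cyclin D3(1-264), Rb fragment substrate and 25 μM ATP. Incubation ran 20 min at 30 °C, extended to 60 min under linear conditions for tight binders.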

HCT-116 cell line = assay: Inhibition of cell growth, tetrazolium salt (MTT) assay; type: cell-based; conditions: for IC50: Homo sapiens, HCT-116, 120 h, MTT, three to five days, read-out: HCT-116 IC50; for HCT-116 % Inhibition at 0.25 μM: 0.25 μM compound
Procedure, shortened: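 Growth inhibition by MTT reduction at 540 nm (0.2 mg/mL, 4 h at 37° C, formazan dissolved in DMSO), normalized to cells given only 0.5% v/v DMSO. HCT-116 cultures in McCoy's 5A were dosed 4 h post-plating and kept three to five days at 37° C, 5% CO2.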

[2] = 0.1 μM compound, HCT-116, Table 3

Compound: Nc1nc(NC2CCN(S(=O)(=O)c3ccc(N4CCC[C@H](CO)C4)nc3)CC2)sc1C(=O)c1c(F)cccc1F [Example G18]
Ki (CDK2/Cyclin A): 0.39 nM | Ki [1]: 0.58 nM | IC50 (HCT-116 cell line; first HCT-116 column (c4)): 120 nM | IC50 (HCT-116 cell line; second HCT-116 column (c5)): 600 nM | melting point: > 149 °C (dec.)

Compound: CN(C)CCCc1ccc(S(=O)(=O)N2CCC(Nc3nc(N)c(C(=O)c4c(F)cccc4F)s3)CC2)cc1 (as salt: salt) [Example I10, 1-(4-Amino-2-{1-[4-(3-dimethylamino-propyl)-benzenesulfonyl]-piperidin-4-ylamino}-thiazol-5-yl)-1-(2,6-difluoro-phenyl)-methanone D-Glucuronic Acid Salt]
melting point: 117 to 120 °C

Compound: Nc1nc(NC2CCN(S(=O)(=O)c3ccc(N4CCC(O)CC4)nc3)CC2)sc1C(=O)c1c(F)cccc1F [Example G9, 1-{4-Amino-2-[1-(4Hydroxy-3,4,5,6-tetrahydro-2H-[1,2′]bipyridinyl-5′-sulfonyl)-piperidin-4-ylamino]-thiazol-5-yl}-1-(2,6-difluoro-phenyl)-methanone]
Ki (CDK2/Cyclin A): 0.52 nM | Ki [1]: 2.2 nM | IC50 (HCT-116 cell line; first HCT-116 column (c4)): 170 nM | IC50 (HCT-116 cell line; second HCT-116 column (c5)): 1800 nM

Compound: CC(C)S(=O)(=O)N1CCC(Nc2nc(N)c(C(=O)c3c(F)cccc3F)s2)CC1 [Example F11, 1-{4-Amino-2-[1-(propane-2-sulfonyl)-piperidin-4-ylamino]-thiazol-5-yl}-1-(2,6-difluoro-phenyl)-methanone]
Ki (CDK2/Cyclin A): 1.6 nM | Ki [1]: 1.1 nM | IC50 (HCT-116 cell line; first HCT-116 column (c4)): 180 nM | IC50 (HCT-116 cell line; second HCT-116 column (c5)): 450 nM

Compound: Nc1nc(NC2CCN(S(=O)(=O)c3ccc(C(=O)O)cc3)CC2)sc1C(=O)c1c(F)cccc1F [Example F14, 4-{4-[4-Amino-5-(2,6-difluoro-benzoyl)-thiazol-2-ylamino]-piperidine-1-sulfonyl}-benzoic Acid]
Ki (CDK2/Cyclin A): 2 nM | Ki [1]: 14 nM | IC50 (HCT-116 cell line; first HCT-116 column (c4)): < 5000 nM | IC50 (HCT-116 cell line; second HCT-116 column (c5)): < 5000 nM

Compound: CN1CCN(Cc2ccc(S(=O)(=O)N3CCC(Nc4nc(N)c(C(=O)c5c(F)cccc5F)s4)CC3)cc2)CC1 [Example J7]
Ki (CDK2/Cyclin A): 1.9 nM | Ki [1]: 0.78 nM | IC50 (HCT-116 cell line; first HCT-116 column (c4)): 130 nM | IC50 (HCT-116 cell line; second HCT-116 column (c5)): 300 nM

Compound: CN1CCC[C@@H](Oc2ccc(S(=O)(=O)N3CCC(Nc4nc(N)c(C(=O)c5c(F)cccc5F)s4)CC3)cn2)C1 [Example H26, (4-Amino-2-{1-[6-(1-methyl-piperidin-3R-yloxy)-pyridine-3-sulfonyl]-piperidin-4-ylamino}-thiazol-5-yl)-(2,6-difluoro-phenyl)-methanone Hydrochloride]
Ki (CDK2/Cyclin A): 0.37 nM | Ki [1]: 1.3 nM | IC50 (HCT-116 cell line; first HCT-116 column (c4)): 22 nM | IC50 (HCT-116 cell line; second HCT-116 column (c5)): 80 nM

Compound: CN(C)CCOc1ncc(S(=O)(=O)N2CCC(Nc3nc(N)c(C(=O)c4c(F)cccc4F)s3)CC2)cn1 [Example H24, (4-Amino-2-{1-[2-(2-dimethylamino-ethoxy)-pyrimidine-5-sulfonyl]-piperidin-4-ylamino}-thiazol-5-yl)-(2,6-difluoro-phenyl)-methanone Trifluoroacetic Acid Salt]
Ki (CDK2/Cyclin A): 1.8 nM | Ki [1]: 0.41 nM | IC50 (HCT-116 cell line; first HCT-116 column (c4)): 140 nM | IC50 (HCT-116 cell line; second HCT-116 column (c5)): 2000 nM

Compound: Cn1cc(S(=O)(=O)N2CCC(Nc3nc(N)c(C(=O)c4c(F)cccc4F)s3)CC2)nc1Br [Example F48, {4-Amino-2-[1-(2-bromo-1-methyl-1H-imidazole-4-sulfonyl)-piperidin-4-ylamino]-thiazol-5-yl}-(2,6-difluoro-phenyl)-methanone]
Ki (CDK2/Cyclin A): 7.6 nM | inhibition at 0.05 µM [1]: 37% | IC50 (HCT-116 cell line; first HCT-116 column (c4)): 3200 nM | IC50 (HCT-116 cell line; second HCT-116 column (c5)): 5000 nM

Compound: Cc1cc(C(=O)N2CCC(Nc3nc(N)c(C(=O)c4c(F)cccc4F)s3)CC2)ccc1Cl [Example D7, 1-(4-Amino-2-{1-[1-(4-chloro-3-methyl-phenyl)-methanoyl]-piperidin-4-ylamino}-thiazol-5-yl)-1-(2,6-difluoro-phenyl)-methanone]
Ki (CDK2/Cyclin A): 100 nM | Ki [1]: 32 nM | IC50 (HCT-116 cell line; first HCT-116 column (c4)): 7.2 nM | IC50 (HCT-116 cell line; second HCT-116 column (c5)): 220 nM

More lines, main results first:

CDK2 % Inhibition at 0.03 μM (CDK2/Cyclin A; 0.03 μM compound, Table 4): −13% | CDK4 % Inhibition at 0.03 μM ([1]; 0.03 μM compound, Table 4): 9%
Compound: CCOC(=O)CC(=O)N1CCC(Nc2nc(N)c(C(=O)c3c(F)cccc3F)s2)CC1 [Example Q47]
HCT-116 % Inhibition at 0.1 μM (HCT-116 cell line; 0.1 μM compound, HCT-116, Table 4): 0% | HCT-116 % Inhibition at 0.25 μM (HCT-116 cell line; HCT-116, Table 4): 25%

CDK2 % Inhibition at 0.03 μM (CDK2/Cyclin A; 0.03 μM compound, Table 3): 53% | CDK4 % Inhibition at 0.03 μM ([1]; 0.03 μM compound, Table 3): 44%
Compound: Nc1nc(NC2CCN(S(=O)(=O)c3c(Cl)nc4sccn34)CC2)sc1C(=O)c1c(F)cccc1F [Example P79]
HCT-116 % Inhibition at 0.1 μM (HCT-116 cell line; [2]): 10% | HCT-116 % Inhibition at 0.25 μM (HCT-116 cell line; HCT-116, Table 3): 18%

CDK2 % Inhibition At 0.03 μM (CDK2/Cyclin A; 0.03 μM compound): 37% | CDK4 % Inhibition at 0.03 μM ([1]; 0.03 μM compound, Table 2): 8%
Compound: Nc1nc(NC2CCN(C(=O)Nc3cccc(F)c3)CC2)sc1C(=O)c1c(F)cccc1F [Example O13]
HCT-116 % Inhibition at 0.25 μM (HCT-116 cell line; HCT-116, Table 2): 22%

CDK2 % Inhibition at 0.03 μM (CDK2/Cyclin A; at 0.03 μM): 38% | CDK4 % Inhibition at 0.03 μM ([1]; at 0.03 μM): 69%
Compound: Cc1cccc(C(=O)N2CCC(Nc3nc(N)c(C(=O)c4c(F)cccc4F)s3)CC2)c1 [Example R140]
HCT-116 % Inhibition at 0.1 μM (HCT-116 cell line; HCT-116 cells, at 0.1 μM): 32% | HCT-116 5 Inhibition at 0.25 μM (HCT-116 cell line; HCT-116 cells): 78

CDK2 % Inhibition At 0.03 μM (CDK2/Cyclin A; 0.03 μM compound): 30% | CDK4 % Inhibition at 0.03 μM ([1]; 0.03 μM compound, Table 2): 6%
Compound: Nc1nc(NC2CCN(C(=O)NC3CCCCC3)CC2)sc1C(=O)c1c(F)cccc1F [Example O34]
HCT-116 % Inhibition at 0.25 μM (HCT-116 cell line; HCT-116, Table 2): 22%

CDK2 % Inhibition at 0.03 μM (CDK2/Cyclin A; 0.03 μM compound, Table 3): 23% | CDK4 % Inhibition at 0.03 μM ([1]; 0.03 μM compound, Table 3): 32%
Compound: Nc1nc(NC2CCN(S(=O)(=O)c3ccc(C(=O)O)cc3)CC2)sc1C(=O)c1c(F)cccc1F [Example P21]
HCT-116 % Inhibition at 0.1 μM (HCT-116 cell line; [2]): 19% | HCT-116 % Inhibition at 0.25 μM (HCT-116 cell line; HCT-116, Table 3): 29%

CDK2 % Inhibition at 0.03 μM (CDK2/Cyclin A; at 0.03 μM): 2% | CDK4 % Inhibition at 0.03 μM ([1]; at 0.03 μM): 38%
Compound: Cc1onc(-c2ccccc2)c1C(=O)N1CCC(Nc2nc(N)c(C(=O)c3c(F)cccc3F)s2)CC1 [Example R21]
HCT-116 % Inhibition at 0.1 μM (HCT-116 cell line; HCT-116 cells, at 0.1 μM): 0% | HCT-116 5 Inhibition at 0.25 μM (HCT-116 cell line; HCT-116 cells): 47

CDK2 % Inhibition At 0.03 μM (CDK2/Cyclin A; 0.03 μM compound): 26% | CDK4 % Inhibition at 0.03 μM ([1]; 0.03 μM compound, Table 2): 7%
Compound: Nc1nc(NC2CCN(C(=O)Nc3ccc(Cl)cc3)CC2)sc1C(=O)c1c(F)cccc1F [Example O20]
HCT-116 % Inhibition at 0.25 μM (HCT-116 cell line; HCT-116, Table 2): 15%

CDK2 % Inhibition At 0.03 μM (CDK2/Cyclin A; 0.03 μM compound): 30% | CDK4 % Inhibition at 0.03 μM ([1]; 0.03 μM compound, Table 2): 11%
Compound: CC(=O)c1ccc(NC(=O)N2CCC(Nc3nc(N)c(C(=O)c4c(F)cccc4F)s3)CC2)cc1 [Example O53]
HCT-116 % Inhibition at 0.25 μM (HCT-116 cell line; HCT-116, Table 2): 41%

CDK2 % Inhibition at 0.03 μM (CDK2/Cyclin A; at 0.03 μM): 45% | CDK4 % Inhibition at 0.03 μM ([1]; at 0.03 μM): 67%
Compound: COc1cc(C(=O)N2CCC(Nc3nc(N)c(C(=O)c4c(F)cccc4F)s3)CC2)ccc1C [Example R155]
HCT-116 % Inhibition at 0.1 μM (HCT-116 cell line; HCT-116 cells, at 0.1 μM): 0% | HCT-116 5 Inhibition at 0.25 μM (HCT-116 cell line; HCT-116 cells): 67

CDK2 % Inhibition at 0.03 μM (CDK2/Cyclin A; at 0.03 μM): 14% | CDK4 % Inhibition at 0.03 μM ([1]; at 0.03 μM): 36%
Compound: CC(Oc1ccccc1)C(=O)N1CCC(Nc2nc(N)c(C(=O)c3c(F)cccc3F)s2)CC1 (stereo not drawn) [Example R159]
HCT-116 % Inhibition at 0.1 μM (HCT-116 cell line; HCT-116 cells, at 0.1 μM): 0% | HCT-116 5 Inhibition at 0.25 μM (HCT-116 cell line; HCT-116 cells): 46

Ki (CDK2/Cyclin A): 3.1 nM | Ki [1]: 18 nM | IC50 (HCT-116 cell line; first HCT-116 column (c4)): > 5000 nM | IC50 (HCT-116 cell line; second HCT-116 column (c5)): > 5000 nM
Compound: Nc1nc(NC2CCN(S(=O)(=O)CCCc3nnn[nH]3)CC2)sc1C(=O)c1c(F)cccc1F [Example K18, 1-(4-Amino-2-{1-[3-(1H-tetrazol-5-yl)-propane-1-sulfonyl]-piperidin-4-ylamino}-thiazol-5-yl)-1-(2,6-difluoro-phenyl)-methanone.]

CDK2 % Inhibition at 0.03 μM (CDK2/Cyclin A; at 0.03 μM): 17% | CDK4 % Inhibition at 0.03 μM ([1]; at 0.03 μM): 41%
Compound: Nc1nc(NC2CCN(C(=O)c3ccc(C(F)(F)F)cc3)CC2)sc1C(=O)c1c(F)cccc1F [Example R152]
HCT-116 % Inhibition at 0.1 μM (HCT-116 cell line; HCT-116 cells, at 0.1 μM): 0% | HCT-116 5 Inhibition at 0.25 μM (HCT-116 cell line; HCT-116 cells): 40

CDK2 % Inhibition at 0.03 μM (CDK2/Cyclin A; at 0.03 μM): 21% | CDK4 % Inhibition at 0.03 μM ([1]; at 0.03 μM): 38%
Compound: Nc1nc(NC2CCN(C(=O)C34CC5CC(CC(C5)C3)C4)CC2)sc1C(=O)c1c(F)cccc1F [Example R54]
HCT-116 % Inhibition at 0.1 μM (HCT-116 cell line; HCT-116 cells, at 0.1 μM): 0% | HCT-116 5 Inhibition at 0.25 μM (HCT-116 cell line; HCT-116 cells): 39

Source: patent US20050101595A1, “N-containing cycloalkyl-substituted amino-thiazole derivatives and pharmaceutical compositions for inhibiting cell proliferation and methods for their use” (PFIZER INC., priority 2003, published 2005)
